Measurements reported in US6239128A, “Indole-2,3-dione-3-oxime derivatives for therapeutic use” (Neurosearch A/S, priority 1998, dated 2001).

Target: AMPA receptor
Experiment: in vitro receptor affinity test: inhibition of specific binding of ^3 H-AMPA
Set-up: species or system male Wistar rats (cerebral cortex)
Conditions: rat cerebral cortex membranes; ^3 H-AMPA 5 nM; 30 minutes at 2° C.; 30 mM Tris-HCl, 2.5 mM CaCl2, 100 mM KSCN, pH 7.4; read-out: IC50 (the concentration (μM) of the test substance which inhibits the specific binding of ^3 H-AMPA by 50%)
Text: In an in vitro activity (receptor affinity) test, the chemical compounds of the present invention have been tested for their affinity for the AMPA receptor.
L-glutamate (GLU) is the major excitatory neurotransmitter in the mammalian central nervous system. From electro-physiological- and binding studies, there appear to be at least three subtypes of GLU receptors, tentatively named N-methyl-D-aspartate (NMDA) receptors, quisqualate receptors and kainate receptors. AMPA has been known for several years to be a potent and selective agonist at the traditionally named quisqualate receptors. Activation of quisqualate receptors by AMPA is associated with Na^+ influx and K^+ efflux leading to depolarisation. ^3 H-AMPA is a selective radioligand for labelling the ionotropic quisqualate (AMPA) receptors.
Preparations are performed at 0-4° C. unless otherwise indicated. Cerebral cortex from male Wistar rats (150-200 g) is homogenised for 5-10 sec in 20 ml Tris-HCl (30 mM, pH 7.4) using an Ultra-Turrax™ homogeniser. The suspension is centrifuged at 27,000×g for 15 minutes and the pellet is washed three times with buffer (centrifuged at 27,000×g for 10 minutes). The washed pellet is homogenised in 20 ml of buffer and incubated on a water bath (of 37° C) for 30 minutes to remove endogenous glutamate and then centrifuged for 10 minutes at 27,000×g. The pellet is then homogenised in buffer and centrifuged at for 10 minutes at 27,000×g. The final pellet is resuspended in 30 ml buffer and the preparation is frozen and stored at -20° C.
The membrane preparation is thawed and centrifuged at 2° C. for 10 minutes at 27,000×g. […] Non-specific binding is determined using L-glutamate (0.6 mM, final concentration).
After incubation the 550 μl samples are added 5 ml of ice-cold buffer and poured directly onto Whatman™ GF/C glass fibre filters under suction and immediately washed with 5 ml of ice-cold buffer. […] The amount of radioactivity on the filters is determined by conventional liquid scintillation counting. […]

Row | IC50 | Structure (SMILES)
1 | 0.15 µM | CN1CCc2c(-c3ccc(S(=O)(=O)N(C)C)cc3)cc3c(c2C1)NC(=O)C3=NOC1CCOC1=O (stereo not drawn) [8-methyl-5-(4-(N,N-dimethylsulfamoyl)phenyl)-6-7-8-9-tetrahydro-1H-pyrrolo[3,2-h]-isoquinoline-2,3-dione-3-O-(3-(2-oxo)tetrahydrofuryl)oxime]
2 | 0.05 µM | CN1CCc2c(-c3ccc(S(=O)(=O)N(C)C)cc3)cc3c(c2C1)NC(=O)C3=NOC(CCO)C(=O)O (stereo not drawn) [8-methyl-5-(4-(N,N-dimethylsulfamoyl)phenyl)-6-7-8-9-tetrahydro-1H-pyrrolo[3,2-h]isoquinoline-2,3-dione-3-O-(4-hydroxybutyric acid-2-yl)oxime]
3 | 0.1 µM | CCOC(=O)CON=C1C(=O)Nc2c1cc(-c1ccc(S(=O)(=O)N(C)C)cc1)c1c2CN(C)CC1 [8-methyl-5-(4-(N,N-dimethylsulphamoyl)phenyl-6,7,8,9-tetrahydro-1H-pyrrolo[3,2-h]isoquinoline-2,3-dione-3-O-(ethoxycarbonylmethyl)oxime]
